Experimental data taken from publication PMC4929166, “Pharmacological evaluation of synthetic cannabinoids identified as constituents of spice” (Forensic Toxicology, 2016).

Assays:
CB1 receptor [1] = biological target: T1, CB1 receptor (Homo sapiens, UniProt P21554); experiment: biochemical; format: binding; design: expressed in transfected cells; host or cells: CHO cells (membrane preparation); conditions: for CB1 selectivity Ki CB2/KiCB1: Table S1, selectivity index from Ki values; for Ki: versus 0.1 nM [3H]CP55,940, CHO cell membranes, mean ± SEM of three to five experiments, read-out: Ki ± SEM Human CB1; for fold higher Ki value at CB1 receptors after introduction of a quinoline: amide-linked group A, compared with naphthyl analogue (8 vs 10; 9 vs 11)
human GPR55 = biological target: T2, human GPR55 (Homo sapiens, UniProt Q9Y2T6); experiment: β-Arrestin recruitment assay (PathHunter) at GPR55; format: cell-based; conditions: for IC50: Human GPR55 IC50, β-arrestin assay, antagonist mode; for Human GPR55 % activation / Human GPR55 % inhibition: β-arrestin assay; for Human GPR55 % activation: percent in brackets beside EC50 >10 µM; for Human GPR55 % inhibition: percent in brackets beside IC50
T2 construct: β-galactosidase enzyme fragment (PathHunter complementation tag)
Procedure: (§1) Recruitment of β-arrestin to the respective receptor was detected by using β-galactosidase enzyme fragment complementation technology (β-arrestin PathHunter™ assay, DiscoverX, Fremont, CA, USA) as previously described. Data were obtained from three independent experiments, performed in duplicates. Data were analyzed using Graph Pad Prism Version 4.02 (San Diego, CA, USA).

CB2 receptor = CB2 receptor (Homo sapiens, UniProt P34972); experiment: biochemical; format: binding; design: expressed in transfected cells; host or cells: CHO cells (membrane preparation); conditions: for Ki: versus 0.1 nM [3H]CP55,940, CHO cell membranes, mean ± SEM of three to five experiments, read-out: Ki ± SEM Human CB2; for CB2 selectivity Ki CB1/KiCB2: Table S1, selectivity index from Ki values
human GPR18 = biological target: T3, human GPR18 (Homo sapiens, UniProt Q14330); experiment: β-Arrestin recruitment assay (PathHunter) at GPR18; format: cell-based; conditions: for Human GPR18 % activation / Human GPR18 % inhibition: β-arrestin assay; for Human GPR18 % activation: percent in brackets beside EC50 >10 µM; for Human GPR18 % inhibition: percent in brackets beside IC50
T3 construct: β-galactosidase enzyme fragment (PathHunter complementation tag)
T3 sequence (Q14330 1-331): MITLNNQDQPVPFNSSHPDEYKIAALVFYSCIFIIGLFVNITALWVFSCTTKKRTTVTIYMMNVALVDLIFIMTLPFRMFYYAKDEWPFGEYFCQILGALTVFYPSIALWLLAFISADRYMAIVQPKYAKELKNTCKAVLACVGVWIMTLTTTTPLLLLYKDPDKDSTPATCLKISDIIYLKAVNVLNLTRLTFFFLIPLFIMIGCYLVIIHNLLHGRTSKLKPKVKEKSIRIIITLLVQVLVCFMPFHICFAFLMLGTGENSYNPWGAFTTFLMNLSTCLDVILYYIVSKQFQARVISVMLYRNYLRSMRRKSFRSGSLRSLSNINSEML
Procedure: as §1

CB1 receptor [2] = biological target: T1, CB1 receptor; experiment: cell-based; format: cell-based; design: expressed in transfected cells; host or cells: CHO cells; conditions: cAMP accumulation, forskolin 10 µM; test concentration 1 µM or 10 µM; normalized to CP55,940

T1 sequence (P21554 whole entry): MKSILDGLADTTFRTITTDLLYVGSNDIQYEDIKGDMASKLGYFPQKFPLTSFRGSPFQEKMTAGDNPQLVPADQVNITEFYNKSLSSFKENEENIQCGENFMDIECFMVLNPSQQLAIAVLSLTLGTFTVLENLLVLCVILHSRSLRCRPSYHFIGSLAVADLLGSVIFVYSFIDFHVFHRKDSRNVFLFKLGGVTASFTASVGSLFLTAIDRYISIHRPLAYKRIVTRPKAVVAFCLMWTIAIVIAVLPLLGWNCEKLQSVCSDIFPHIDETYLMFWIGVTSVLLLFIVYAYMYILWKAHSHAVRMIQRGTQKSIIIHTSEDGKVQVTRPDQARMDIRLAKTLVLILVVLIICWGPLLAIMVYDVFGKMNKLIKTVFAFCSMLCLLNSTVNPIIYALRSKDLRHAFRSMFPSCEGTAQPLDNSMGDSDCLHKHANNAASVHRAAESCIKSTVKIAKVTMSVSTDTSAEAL
T2 sequence (Q9Y2T6 whole entry, the tested form may be a part): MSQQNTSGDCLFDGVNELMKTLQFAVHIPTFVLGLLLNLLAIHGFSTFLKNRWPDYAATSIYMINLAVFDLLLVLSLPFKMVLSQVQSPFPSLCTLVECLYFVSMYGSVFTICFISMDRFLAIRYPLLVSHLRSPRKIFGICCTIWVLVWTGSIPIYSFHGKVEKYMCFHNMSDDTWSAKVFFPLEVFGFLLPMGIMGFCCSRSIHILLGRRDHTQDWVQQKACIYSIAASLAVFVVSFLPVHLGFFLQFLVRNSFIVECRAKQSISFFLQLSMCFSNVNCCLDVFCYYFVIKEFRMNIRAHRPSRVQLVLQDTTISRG
CB2 receptor, sequence (P34972 whole entry): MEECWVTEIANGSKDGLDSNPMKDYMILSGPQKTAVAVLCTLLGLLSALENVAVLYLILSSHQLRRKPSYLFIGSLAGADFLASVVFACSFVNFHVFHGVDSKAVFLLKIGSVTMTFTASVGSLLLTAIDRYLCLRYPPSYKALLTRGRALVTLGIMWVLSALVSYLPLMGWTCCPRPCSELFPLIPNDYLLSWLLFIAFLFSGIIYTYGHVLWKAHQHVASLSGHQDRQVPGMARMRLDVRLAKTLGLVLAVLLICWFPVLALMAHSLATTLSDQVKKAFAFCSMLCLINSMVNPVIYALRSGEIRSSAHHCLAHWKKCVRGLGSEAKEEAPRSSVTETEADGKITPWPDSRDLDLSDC

| Structure (SMILES) | CB1 selectivity Ki CB2/KiCB1 (CB1 receptor [1]) | Ki (CB1 receptor [1]) [µM] | EC50 (human GPR55) [µM] | IC50 (human GPR55) [µM] | Human GPR55 % activation (human GPR55) [%] | Human GPR55 % inhibition (human GPR55) | Ki (CB2 receptor) [µM] | EC50 (human GPR18) [µM] | IC50 (human GPR18) [µM] | Human GPR18 % activation (human GPR18) [%] | Human GPR18 % inhibition (human GPR18) | fold higher Ki value at CB1 receptors after introduction of a quinoline (CB1 receptor [1]) [fold] | CB2 selectivity Ki CB1/KiCB2 (CB2 receptor) | efficacy at CB1 receptor (in words) (CB1 receptor [2]) |
| --- | --- | --- | --- | --- | --- | --- | --- | --- | --- | --- | --- | --- | --- | --- |
| O=C(Nc1cccc2ccccc12)c1cn(CCCCCF)c2ccccc12 [Compound 5, 5F-NNEI] | 3.6 | 0.00369 ± 0.00197 | > 10 | > 10 | 25 | −8% | 0.0134 ± 0.0016 | > 10 | > 10 | −3 | −17% | – | – | – |
| O=C(Nc1cccc2ccccc12)c1cn(CCCCCCl)c2ccccc12 [Compound 6, 5Cl-NNEI] | 3.2 | 0.0102 ± 0.0022 | > 10 | > 10 | 28 | 5% | 0.0328 ± 0.0108 | > 10 | > 10 | 1 | −13% | – | – | – |
| O=C(Nc1cccc2ccccc12)c1nn(CCCCCF)c2ccccc12 [Compound 9, 5F-MN-18] | 1.5 | 0.00165 ± 0.00026 | > 10 | > 10 | 38 | −5% | 0.0025 ± 0.00086 | > 10 | > 10 | −26 | 23% | – | – | – |
| CCCCCn1nc(C(=O)Nc2cccc3cccnc23)c2ccccc21 [Compound 10, THJ] | – | 0.103 ± 0.025 | > 10 | > 10 | 11 | 50% | 0.0127 ± 0.0041 | > 10 | > 10 | 4 | 30% | 14 | 8.1 | – |
| O=C(Nc1cccc2cccnc12)c1nn(CCCCCF)c2ccccc12 [Compound 11, 5F-THJ] | – | 0.0226 ± 0.0075 | > 10 | > 10 | 28 | – | 0.00275 ± 0.00099 | > 10 | > 10 | −17 | 44% | 27 | 8.2 | – |
| CCCCCn1cc(C(=O)Nc2ccccc2)c2ccccc21 [Compound 14, SDB-006-N-phenyl-analog] | – | 0.163 ± 0.017 | > 10 | > 10 | 20 | 1% | 0.275 ± 0.025 | > 10 | > 10 | 9 | −13% | – | – | – |
| O=C(NC12CC3CC(CC(C3)C1)C2)c1nn(CCCCCF)c2ccccc12 [Compound 17, 5F-APINACA (5F-AKB48)] | – | 0.00194 ± 0.00055 | – | – | – | – | 0.000266 ± 4.1e-05 | – | – | – | – | – | 7.3 | activated CB1 receptor more efficaciously than CB2 |
| O=C(NC12CC3CC(CC(C3)C1)C2)c1nn(Cc2ccc(F)cc2)c2ccccc12 [Compound 18, N-((3s,5s,7s)-Adamantan-1-yl)-1-(4-fluorobenzyl)-1H-indazole-3-carboxamide] | – | 0.00106 ± 0.00029 | > 10 | – | −11 | (83 %) | 0.000174 ± 1.8e-05 | > 10 | – | −27 | (69 %) | – | 6.1 | – |
| O=C(Oc1cccc2ccccc12)c1cn(Cc2ccc(F)cc2)c2ccccc12 [Compound 20, FDU-PB-22] | 2.0 | 0.00119 ± 0.00039 | > 10 | > 10 | 11 | 30% | 0.00243 ± 0.00092 | > 10 | > 10 | 30 | −4% | – | – | – |
| O=C(Oc1cccc2cccnc12)c1cn(CCCCCF)c2ccccc12 [Compound 25, 5F-PB-22] | 1.4 | 0.000468 ± 6.9e-05 | > 10 | > 10 | 5 | -10% | 0.000633 ± 5.8e-05 | > 10 | > 10 | −5 | −5% | – | – | – |
| O=C(Oc1cccc2cccnc12)c1cn(Cc2ccc(F)cc2)c2ccccc12 [Compound 26, FUB-PB-22] | 1.2 | 0.000386 ± 0.000117 | > 10 | > 10 | 5 | 24% | 0.000478 ± 0.000124 | > 10 | > 10 | 15 | 8% | – | – | – |
| CCCCCn1nc(C(=O)c2cccc3ccccc23)c2ccccc21 [Compound 28, THJ018] | – | 0.00584 ± 0.00132 | > 10 | 8.2 ± 2.11 | 6 | – | 0.00457 ± 0.00028 | > 10 | > 10 | 33 | −5% | – | 1.3 | – |
| O=C(c1cccc2ccccc12)c1nn(CCCCCF)c2ccccc12 [Compound 29, THJ2201] | 1.0 | 0.00134 ± 0.00054 | > 10 | > 10 | −1 | 47% | 0.00132 ± 0.00039 | > 10 | > 10 | 18 | 21% | – | 1.0 | – |
| Cc1ccc(C(=O)c2cn(CCCCCF)c3ccccc23)c2ccccc12 [Compound 30, MAM-2201] | – | 0.00158 ± 0.00076 | – | – | – | – | 0.000582 ± 0.000123 | – | – | – | – | – | 2.7 | – |
| Cc1ccc(C(=O)c2cn(CCCC(C)F)c3ccccc23)c2ccccc12 (stereo not drawn) [Compound 32, MAM-2201-4-fluoropentyl-isomer] | – | 0.00323 ± 0.00156 | > 10 | 3.07 ± 1.48 | −41 | – | 0.000808 ± 5.7e-05 | – | – | – | – | – | 4.0 | – |
| CCCCCn1cc(C(=O)c2ccccc2OC)c2ccccc21 [Compound 33, RCS-4] | – | 0.0266 ± 0.0066 | – | – | – | – | 0.00286 ± 0.00039 | – | – | – | – | – | 9.3 | – |
| COc1ccccc1CC(=O)c1cn(CCC2CCCCC2)c2ccccc12 [Compound 34, RCS-8] | – | 0.0813 ± 0.0158 | – | – | – | – | 0.0146 ± 0.0061 | – | – | – | – | – | 5.6 | – |
| O=C(c1cn(CCCCCF)c2ccccc12)C12CC3CC(CC(C3)C1)C2 [Compound 36, 5F-AB001] | – | 0.0123 ± 0.003 | > 10 | ~10 | 19 | 48% | 0.00147 ± 0.00103 | > 10 | ~10 | −6 | – | – | 8.4 | – |
| CCCC(F)Cn1cc(C(=O)C2C(C)(C)C2(C)C)c2ccccc21 (stereo not drawn) [Compound 39, XLR-11-2-fluoropentyl-isomer] | – | 0.0595 ± 0.0169 | > 10 | 5.69 ± 1.95 | −8 | – | 0.00183 ± 0.00047 | > 10 | > 10 | 24 | 29% | – | 32.5 | – |
| CC1(C)C(C(=O)c2nn(CCCCCF)c3ccccc23)C1(C)C [Compound 40, FAB-144] | – | 0.0175 ± 0.0011 | > 10 | ~10 | 5 | 77% | 0.00045 ± 0.000111 | > 10 | ~10 | 2 | 57% | – | 38.9 | – |
| CC1(C)C(C(=O)c2cn(Cc3ccc(F)cc3)c3ccccc23)C1(C)C [Compound 42, FUB-144] | – | 0.014 ± 0.0027 | > 10 | ~10 | −3 | 62% | 0.000846 ± 0.000209 | > 10 | ~10 | −12 | 74% | – | 16.5 | – |
| Cc1c(C(=O)C2C(C)(C)C2(C)C)c2ccccc2n1CCCCCF [Compound 47, M-144] | – | 0.0194 ± 0.0078 | > 10 | ~10 | −5 | 86% | 0.00459 ± 0.00148 | > 10 | ~10 | −7 | 67% | – | 4.2 | – |
